From EP4741401A1, “BENZOTHIAZOIMIDAZOLYL COMPOUND AND USE THEREOF” (ER Stress Research Institute, Inc., priority 2023, dated 2025)

Tests used:
[1] = tested on: endoplasmic reticulum stress response induced by Tm; assay: Suppression of endoplasmic reticulum stress response (ERSE2-UPRE-AARE-EGFP reporter fluorescence); type: cell-based; settings: 293A reporter cells, incubated at 37°C overnight, read-out: Suppression rank of endoplasmic reticulum stress response
Protocol: A solution of the compound synthesized in "(1) Synthesis of benzothiazoimidazolyl compound" was appropriately diluted with a DMEM solution containing 10% fetal bovine serum (FBS), and the diluted solution was added to a 384-well assay plate at 10 µL/well. Next, 30 µL of a culture medium containing the reporter cells and 10 µL of the Tm solution were mixed, and the mixture was added to the 384-well assay plate at 40 µL/well such that the cell density was 18 × 10^3 cells/well, and the whole was incubated at 37°C overnight.
A multi-plate reader Citation 3 (Bio-Tek) was used to determine the EGFP fluorescence intensity (excitation wavelength: 485 nm, fluorescence wavelength: 528 nm) when the test compound was added. A smaller fluorescence intensity indicates more suppression of the increase in activity of the endoplasmic reticulum stress marker induced by Tm.
A "control" containing the Tm solution and, in place of the test compound solution, an equal volume of DMSO was subjected to the measurement of fluorescence intensity in a similar manner. In addition, a "background" containing a solution prepared in the same manner as for the Tm solution except that no Tm was added and containing, in place of the test compound solution, an equal volume of DMSO was subjected to the measurement of fluorescence intensity in a similar manner.
The fluorescence intensity was determined while the concentration of the test compound was varied, and the 50% effective concentration (IC50) of suppressing the endoplasmic reticulum stress response induced by Tm was calculated.

[2] = tested on: 293A cells; assay: Cytoprotection under endoplasmic reticulum stress conditions (Tm-induced cell death); type: cell-based; settings: compound concentration inhibiting Tm-induced cell death by 50%, Tm 0.2 µg/mL, reporter cells
Protocol: The reporter cells same as those used in Example 1 were placed in each well of a 96-well assay plate and were treated with Tm at a final concentration of 0.2 µg/mL and the test compound. […]

Structure (SMILES) | IC50 [1] [nM] | IC50 [2] [nM]
C#CCCC1(CCNC(=O)CCc2cccc3c2sc2nc(-c4ccc(C(F)(F)F)cc4)cn23)N=N1 [IBT-73, N-(2-(3-(but-3-yn-1-yl)-3H-diazirin-3-yl)ethyl)-3-(2-(4-(trifluoromethyl)phenyl)benzo[d]imidazo[2,1-b]thiazol-8-yl)propanamide 2,2,2-trifluoroacetate] | > 1000 | 8400
CCCc1ccc(-c2cn3c(n2)sc2cc(S(C)(=O)=O)ccc23)cc1 [IBT-67, 7-(methylsulfonyl)-2-(4-propylphenyl)benzo[d]imidazo[2,1-b]thiazole] | 100 to 1000 | 370
OCc1ccc2c(c1)sc1nc(-c3ccc(Cl)cc3)cn12 [IBT-59, (2-(4-chlorophenyl)benzo[d]imidazo[2,1-b]thiazol-7-yl)methanol] | 100 to 1000 | 410
CCOc1ccc2c(c1)sc1nc(-c3ccc(Cl)cc3)cn12 [IBT-46, 2-(4-chlorophenyl)-7-ethoxybenzo[d]imidazo[2,1-b]thiazole] | 100 to 1000 | 560
FC(F)(F)c1ccc(-c2cn3c(n2)sc2c(Br)cccc23)cc1 [IBT-72, 8-bromo-2-(4-(trifluoromethyl)phenyl)benzo[d]imidazo[2,1-b]thiazole] | 100 to 1000 | 630
COc1cccc2sc3nc(-c4ccc(Cl)cc4)cn3c12 [IBT-51, 2-(4-chlorophenyl)-5-methoxybenzo[d]imidazo[2,1-b]thiazole] | > 1000 | 7720
C#CCNC(=O)CCc1ccc2c(c1)sc1nc(-c3ccc(C(F)(F)F)cc3)cn12 [IBT-57] | > 1000 | 3800
CC(C)(C)OC(=O)NCCOCCNC(=O)CCc1ccc2c(c1)sc1nc(-c3ccc(C(F)(F)F)cc3)cn12 [IBT-53, tert-butyl (2-(2-(3-(2-(4-(trifluoromethyl)phenyl)benzo[d]imidazo[2,1-b]thiazol-7-yl)propanamido)ethoxy)ethyl)carbamate] | > 1000 | 4470
C#CCCC1(CCOc2cc(-c3cn4c(n3)sc3cc(S(C)(=O)=O)ccc34)ccc2Cl)N=N1 [IBT-63, 2-(3-(2-(3-(but-3-yn-1-yl)-3H-diazirin-3-yl)ethoxy)-4-chlorophenyl)-7-(methylsulfonyl)benzo[d]imidazo[2,1-b]thiazole 2,2,2-trifluoroacetate] | 100 to 1000 | 350
CCOc1ccc(-c2cn3c(n2)sc2cc(S(C)(=O)=O)ccc23)cc1 [IBT-64, 2-(4-ethoxyphenyl)-7-(methylsulfonyl)benzo[d]imidazo[2,1-b]thiazole] | 100 to 1000 | 670
CC(C)(C)OC(=O)NCCOCCNC(=O)CCc1cccc2c1sc1nc(-c3ccc(C(F)(F)F)cc3)cn12 [IBT-74, tert-butyl (2-(2-(3-(2-(4-(trifluoromethyl)phenyl)benzo[d]imidazo[2,1-b]thiazol-8-yl)propanamido)ethoxy)ethyl)carbamate] | > 1000 | 3700
C#CCCC1(CCOc2cccc(-c3cn4c(n3)sc3cc(S(C)(=O)=O)ccc34)c2)N=N1 [IBT-70, 2-(3-(2-(3-(but-3-yn-1-yl)-3H-diazirin-3-yl)ethoxy)phenyl)-7-(methylsulfonyl)benzo[d]imidazo[2,1-b]thiazole 2,2,2-trifluoroacetate] | 100 to 1000 | 430
CC(C)(C)OC(=O)NCCCOc1ccc(-c2cn3c(n2)sc2cc(S(C)(=O)=O)ccc23)cc1 [IBT-66, tert-butyl (3-(4-(7-(methylsulfonyl)benzo[d]imidazo[2,1-b]thiazol-2-yl)phenoxy)propyl)carbamate] | 100 to 1000 | 830
CCOC(=O)c1ccc2c(c1)sc1nc(-c3ccc(Cl)cc3)cn12 [IBT-45, ethyl 2-(4-chlorophenyl)benzo[d]imidazo[2,1-b]thiazole-7-carboxylate] | 100 to 1000 | 350
CCN(CC)C(=O)CCCS(=O)(=O)c1ccc2c(c1)sc1nc(-c3ccc(C(F)(F)F)cc3)cn12 [IBT-55, N,N-diethyl-4-((2-(4-(trifluoromethyl)phenyl)benzo[d]imidazo[2,1-b]thiazol-7-yl)sulfonyl)butanamide] | 100 to 1000 | 660
COc1ccc(-c2cn3c(n2)sc2cc(S(C)(=O)=O)ccc23)cc1 [IBT-43, 2-(4-methoxyphenyl)-7-(methylsulfonyl)benzo[d]imidazo[2,1-b] thiazole] | 100 to 1000 | 170
CNC(=O)CCCNS(=O)(=O)c1ccc2c(c1)sc1nc(-c3ccc(C(F)(F)F)cc3)cn12 [IBT-52, N-methyl-4-((2-(4-(trifluoromethyl)phenyl)benzo[d]imidazo[2,1-b]thiazole)-7-sulfonamido)butanamide] | 100 to 1000 | 420
C#CCCC1(CCNC(=O)CCc2ccc3c(c2)sc2nc(-c4ccc(C(F)(F)F)cc4)cn23)N=N1 [IBT-61, N-(2-(3-(but-3-yn-1-yl)-3H-diazirin-3-yl)ethyl)-3-(2-(4-(trifluoromethyl)phenyl)benzo[d]imidazo[2,1-b]thiazol-7-yl)propanamide] | > 1000 | 4160
C#CCOCc1ccc2c(c1)sc1nc(-c3ccc(Cl)cc3)cn12 [IBT-60, 2-(4-chlorophenyl)-7-((prop-2-yn-1-yloxy)methyl)benzo[d]imidazo[2,1-b]thiazole 2,2,2-trifluoroacetate] | 100 to 1000 | 900
CC(C)(C)OC(=O)NCCCOc1cc(-c2cn3c(n2)sc2cc(S(C)(=O)=O)ccc23)ccc1Cl [IBT-58, tert-butyl (3-(2-chloro-5-(7-(methylsulfonyl)benzo[d]imidazo[2,1-b]thiazol-2-yl)phenoxy)propyl)carbamate] | > 1000 | 3200

The next lines start with results.

IC50 [1] [nM] | Structure (SMILES) | IC50 [2] [nM]
100 to 1000 | C#CCOc1cc(-c2cn3c(n2)sc2cc(S(C)(=O)=O)ccc23)ccc1Cl [IBT-56, 2-(4-chloro-3-(prop-2-yn-1-yloxy)phenyl)-7-(methylsulfonyl)benzo[d]imidazo[2,1-b]thiazole] | 560
10 to 100 | CNC(=O)CCc1ccc2c(c1)sc1nc(-c3ccc(C(F)(F)F)cc3)cn12 [IBT-37, N-methyl-3-(2-(4-(trifluoromethyl)phenyl)benzo[d]imidazo[2,1-b]thiazol-7-yl)propanamide] | 30
10 to 100 | CNC(=O)CCCS(=O)(=O)c1ccc2c(c1)sc1nc(-c3ccc(C(F)(F)F)cc3)cn12 [IBT-38, N-methyl-4-((2-(4-(trifluoromethyl)phenyl)benzo[d]imidazo[2,1-b]thiazol-7-yl)sulfonyl)butanamide] | 90
10 to 100 | C#CCOc1ccc(-c2cn3c(n2)sc2cc(S(C)(=O)=O)ccc23)cc1 [IBT-41, 7-(methylsulfonyl)-2-(4-(prop-2-yn-1-yloxy)phenyl)benzo[d]imidazo[2,1-b]thiazole 2,2,2-trifluoroacetate] | 90
10 to 100 | CS(=O)(=O)c1ccc2c(c1)sc1nc(-c3ccc(F)cc3)cn12 [IBT-34, 2-(4-fluorophenyl)-7-(methylsulfonyl)benzo[d]imidazo[2,1-b]thiazole] | 80
≤ 10 | CS(=O)(=O)c1ccc2c(c1)sc1nc(-c3ccc(C(F)(F)F)cc3)cn12 [IBT-31, 7-(methylsulfonyl)-2-(4-(trifluoromethyl)phenyl)benzo[d]imidazo[2,1-b]thiazole] | 10
10 to 100 | FC(F)(F)c1ccc(-c2cn3c(n2)sc2ccccc23)cc1 [IBT-40, 2-(4-(trifluoromethyl)phenyl)benzo[d]imidazo[2,1-b]thiazole] | 100
≤ 10 | COc1cc(-c2cn3c(n2)sc2cc(S(C)(=O)=O)ccc23)ccc1Cl [IBT-36, 2-(4-chloro-3-methoxyphenyl)-7-(methylsulfonyl)benzo[d]imidazo[2,1-b]thiazole] | 10
10 to 100 | COc1cccc(-c2cn3c(n2)sc2cc(S(C)(=O)=O)ccc23)c1 [IBT-33, 2-(3-methoxyphenyl)-7-(methylsulfonyl)benzo[d]imidazo[2,1-b]thiazole] | 70
10 to 100 | Cc1ccc2c(c1)sc1nc(-c3ccc(C(F)(F)F)cc3)cn12 [IBT-68, 7-methyl-2-(4-(trifluoromethyl)phenyl)benzo[d]imidazo[2,1-b]thiazole] | 100
10 to 100 | CS(=O)(=O)c1ccc2c(c1)sc1nc(-c3ccc(Cl)c(Cl)c3)cn12 [IBT-32, 2-(3,4-dichlorophenyl)-7-(methylsulfonyl)benzo[d]imidazo[2,1-b]thiazole] | 20
10 to 100 | CCN(CC)C(=O)CCc1ccc2c(c1)sc1nc(-c3ccc(C(F)(F)F)cc3)cn12 [IBT-39, N,N-diethyl-3-(2-(4-(trifluoromethyl)phenyl)benzo[d]imidazo[2,1-b]thiazol-7-yl)propanamide] | 80
10 to 100 | CNC(=O)CCc1ccc2c(c1)sc1nc(-c3ccc(Cl)cc3)cn12 [IBT-35, 3-(2-(4-chlorophenyl)benzo[d]imidazo[2,1-b]thiazol-7-yl)-N-methylpropanamide] | 40
